Experimental data taken from patent US20110034714A1, “METAL COMPLEX COMPOUND, CANCER THERAPEUTIC AGENT COMPOSITION CONTAINING THE METAL COMPLEX COMPOUND AS AN ACTIVE INGREDIENT, AND INTERMEDIATE FOR THE METAL COMPLEX COMPOUND” (priority 2007, published 2011).

Assays:
Assay type in all cases: in vivo
human tumor SC-6-JCK = assay: Anti-tumor action in nude mice transplanted with human tumor SC-6-JCK; conditions: SC-6-JCK tumor-bearing nude mice, 7.0 mg and 10.0 mg/kg, tail vein, 3 times at 4 days' intervals
Description: (§1) Using nude mice transplanted with human tumors SC-6-JCK and Lu-24, the anti-tumor action of the substance having the structure below (Compound 44), among the compounds of the present invention, was investigated. Each of SC-6-JCK and Lu-24 was subcutaneously implanted in nude mice, and, when the tumor volumes reached to 100 to 300 mm^3, 7.0 mg and 10.0 mg/kg of the present test substance were respectively administered to the SC-6-JCK tumor-bearing mice, and 10.0 mg and 12.0 mg/kg of the present test substance were respectively administered to the Lu-24 tumor-bearing mice, from the tail vein 3 times intermittently at 4 days' intervals.

human tumor Lu-24 = assay: Anti-tumor action in nude mice transplanted with human tumor Lu-24; conditions: Lu-24 tumor-bearing nude mice, 10.0 mg and 12.0 mg/kg, tail vein, 3 times at 4 days' intervals
Description: as §1

[1] = BUN (blood urea nitrogen) as an index of nephrotoxicity in tumor-bearing nude mice; conditions: 4 days after completion of the administration; SC-6-JCK and Lu-24 tumor-bearing nude mice
Description: as §1

In the case of CCOP1(=O)CP(=O)(OCC)[O][Pt]([NH2])([NH2])[O]1 (stereo not drawn) [Compound 44], the “suppression of the tumor volume” value (human tumor SC-6-JCK) was “suppression of the tumor volume was observed in a dose-dependent manner”, the “suppression of the tumor volume” value (human tumor Lu-24) was “suppression of the tumor volume was observed in a dose-dependent manner” and the “BUN (blood urea nitrogen) as an index of nephrotoxicity” value [1] was “an increase of the BUN value was not observed”.
